Some test systems named below: RXF 393 renal; HT29 colon; M14 melanoma; TK-10 renal; SK-MEL-28 melanoma; A498 renal; OVCAR-8 ovarian; HOP-62 NSCLC; PC-3 prostate; OVCAR-4 ovarian; ACHN renal; MDA-N; HCT-15 colon; HCT-116 colon; SNB-75 CNS; U251 CNS; SK-MEL-5 melanoma; UACC-257 melanoma; SNB-19 CNS; HOP-92 NSCLC.
Common to all, as to experiment: NCI anticancer screen, dose series, 48 h

The record followed here is PubChem BioAssay (NCI).

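All cell lines were grown in 96-well plates and treated with compound for 48 hours. TGI: concentration producing complete growth inhibition.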

`CN(C)C(=C1c2cc([N+](=O)[O-])ccc2-c2ccc([N+](=O)[O-])cc21)N(C)C`: the TGI in the assay with RXF 393 renal, in the assay on HT29 colon, with M14 melanoma, in the assay with TK-10 renal, in the assay on SK-MEL-28 melanoma and in the assay with A498 renal was above 100 µM in each case. Also, the TGI with OVCAR-8 ovarian, in the assay on HOP-62 NSCLC, in the assay with PC-3 prostate, with OVCAR-4 ovarian, in the assay on ACHN renal and in the assay with MDA-N was above 100 µM in each case. For the same compound, the TGI in the assay on HCT-15 colon, in the assay on HCT-116 colon, in the assay on SNB-75 CNS, with U251 CNS, in the assay with SK-MEL-5 melanoma and in the assay with UACC-257 melanoma was above 100 µM throughout. In addition, the TGI with SNB-19 CNS was above 100 µM.

Turning to `CC1=CCS(=O)(=O)C1C(O)C1=C(C)CCCC1(C)C` (stereo not given), the TGI in the assay with RXF 393 renal, in the assay with HT29 colon, with M14 melanoma, in the assay with TK-10 renal, in the assay on SK-MEL-28 melanoma and in the assay on A498 renal was above 100 µM in each case. Moreover, the TGI in the assay with OVCAR-8 ovarian, with HOP-62 NSCLC, in the assay with PC-3 prostate, with OVCAR-4 ovarian, with ACHN renal and with MDA-N was above 100 µM each time. For the same compound, the TGI with HCT-15 colon, in the assay with HCT-116 colon, with SNB-75 CNS, with U251 CNS, in the assay on SK-MEL-5 melanoma and with UACC-257 melanoma was above 100 µM throughout. The compound also registered a TGI in the assay on SNB-19 CNS above 100 µM.

Consider `CC(C)(C)OC(=O)CN1CCNCCN(CC(=O)OC(C)(C)C)CC1`, for which the TGI in the assay on HT29 colon, with M14 melanoma, with TK-10 renal, in the assay on A498 renal, in the assay with OVCAR-8 ovarian and in the assay with HOP-62 NSCLC was above 100 µM throughout. Also, the TGI with PC-3 prostate, in the assay on OVCAR-4 ovarian, with ACHN renal, with MDA-N, in the assay on HOP-92 NSCLC and with HCT-15 colon was above 100 µM each time. For the same compound, the TGI was above 100 µM in the assay with HCT-116 colon; 68.7 µM with SNB-75 CNS; above 100 µM in the assay with SK-MEL-5 melanoma; above 100 µM with UACC-257 melanoma; above 100 µM in the assay with SNB-19 CNS.

For the compound `CCOC(=O)C(NC(=O)NC(C(=O)OCC)C(=O)OCC)C(=O)OCC`, the TGI with RXF 393 renal, with HT29 colon, with M14 melanoma, in the assay with TK-10 renal, in the assay with SK-MEL-28 melanoma and in the assay on OVCAR-8 ovarian was above 100 µM each time. Besides, the TGI in the assay on HOP-62 NSCLC, with PC-3 prostate, in the assay with ACHN renal, in the assay on MDA-N, with HOP-92 NSCLC and with HCT-15 colon was above 100 µM throughout. Besides, the TGI in the assay on HCT-116 colon, with U251 CNS, in the assay with SK-MEL-5 melanoma and in the assay with SNB-19 CNS was above 100 µM each time.

Turning to `Cc1cccc(Nc2cn(CCOc3ccccc3)c(=O)n(CCOc3ccccc3)c2=O)c1`, the TGI in the assay with RXF 393 renal, with M14 melanoma, in the assay on SK-MEL-28 melanoma, with A498 renal, in the assay with HOP-62 NSCLC and in the assay with PC-3 prostate was above 100 µM in each case. Moreover, the TGI with OVCAR-4 ovarian, in the assay with ACHN renal, with MDA-N, in the assay on HOP-92 NSCLC, in the assay with HCT-15 colon and in the assay on HCT-116 colon was above 100 µM in each case. Moreover, the TGI in the assay with U251 CNS, with SK-MEL-5 melanoma, in the assay with UACC-257 melanoma and in the assay on SNB-19 CNS was above 100 µM each time.

Regarding `COC1OC(COC(=O)NCCCCC(=O)C(F)(F)F)C(O)C(O)C1O` (stereo not given), the TGI with RXF 393 renal, in the assay with HT29 colon, in the assay on M14 melanoma, with TK-10 renal, in the assay with SK-MEL-28 melanoma and with HOP-62 NSCLC was above 100 µM each time. Besides, the TGI in the assay with PC-3 prostate, in the assay with OVCAR-4 ovarian, with ACHN renal, in the assay on MDA-N, in the assay with HOP-92 NSCLC and with HCT-15 colon was above 100 µM throughout. Also, the TGI in the assay on HCT-116 colon, with SNB-75 CNS, in the assay with U251 CNS, in the assay with SK-MEL-5 melanoma, in the assay with UACC-257 melanoma and in the assay with SNB-19 CNS was above 100 µM in each case.

`C=C(Br)CN(CC(=C)Br)C(C)=O`: the TGI in the assay on RXF 393 renal, in the assay with HT29 colon, in the assay with M14 melanoma, in the assay with TK-10 renal, with SK-MEL-28 melanoma and in the assay with A498 renal was above 100 µM in each case. Further, the TGI in the assay on OVCAR-8 ovarian, in the assay on HOP-62 NSCLC, with PC-3 prostate, in the assay on OVCAR-4 ovarian, with ACHN renal and in the assay on MDA-N was above 100 µM each time. Also, the TGI in the assay on HCT-15 colon, with HCT-116 colon, with SNB-75 CNS, with U251 CNS, in the assay with SK-MEL-5 melanoma and in the assay with UACC-257 melanoma was above 100 µM each time. In addition, in the assay on SNB-19 CNS, the TGI is above 100 µM.

Take `O=[N+]([O-])/C(C(Cl)=C(Cl)Cl)=C1/OCCS1`: the TGI was 41.3 µM in the assay with RXF 393 renal; above 100 µM in the assay with HT29 colon; above 100 µM with M14 melanoma; 66.4 µM with TK-10 renal; 96.5 µM in the assay with SK-MEL-28 melanoma; 36.8 µM in the assay with A498 renal. Moreover, the TGI was 34.4 µM in the assay with OVCAR-8 ovarian; 40.4 µM in the assay on HOP-62 NSCLC; above 100 µM in the assay on PC-3 prostate; above 100 µM in the assay with OVCAR-4 ovarian; 42.2 µM in the assay with ACHN renal; above 100 µM in the assay on MDA-N. Besides, the TGI in the assay with HCT-15 colon is 61 µM; with HCT-116 colon it was 35.2 µM; in the assay on SNB-75 CNS it was 50.6 µM; in the assay with U251 CNS, above 100 µM; in the assay on SK-MEL-5 melanoma it was 34 µM; in the assay on UACC-257 melanoma it was 67.3 µM. Moreover, in the assay on SNB-19 CNS, the TGI was above 100 µM.

Turning to `Cc1ccc(C(=O)C#Cc2cn(C3CC(O)C(CO)O3)c(=O)[nH]c2=O)cc1` (stereo not given), the TGI with RXF 393 renal, in the assay on HT29 colon, in the assay on M14 melanoma, in the assay on TK-10 renal, in the assay on SK-MEL-28 melanoma and with OVCAR-8 ovarian was above 100 µM throughout. For the same compound, the TGI in the assay on HOP-62 NSCLC is above 100 µM; with PC-3 prostate, above 100 µM; in the assay on OVCAR-4 ovarian, above 100 µM; in the assay with ACHN renal, above 100 µM; in the assay with MDA-N, above 100 µM; with HOP-92 NSCLC it was 65.1 µM. Besides, the TGI in the assay with HCT-15 colon, with HCT-116 colon, in the assay with SNB-75 CNS, in the assay on U251 CNS, in the assay on SK-MEL-5 melanoma and with UACC-257 melanoma was above 100 µM each time. Besides, the TGI in the assay with SNB-19 CNS is above 100 µM.

Regarding `COc1ccc(C2NC3=C(CCCC3)C3(C#N)C(=O)N=C(N)C23C#N)cc1` (stereo not given), the TGI in the assay on RXF 393 renal, in the assay with HT29 colon, with M14 melanoma, in the assay on TK-10 renal, with SK-MEL-28 melanoma and in the assay with A498 renal was above 100 µM each time. In addition, the TGI with OVCAR-8 ovarian, with HOP-62 NSCLC, with PC-3 prostate, in the assay with OVCAR-4 ovarian, with ACHN renal and in the assay with MDA-N was above 100 µM each time. The TGI with HOP-92 NSCLC, with HCT-15 colon, in the assay on HCT-116 colon, with U251 CNS, in the assay on SK-MEL-5 melanoma and in the assay with UACC-257 melanoma was above 100 µM throughout. For the same compound, the TGI in the assay with SNB-19 CNS was above 100 µM.

As for `O=C1C(N=Nc2ccc(-c3nc4ccccc4o3)cc2)NC(=S)N1c1ccccc1` (stereo not given), the TGI in the assay with RXF 393 renal, in the assay with HT29 colon, with M14 melanoma, in the assay on TK-10 renal, in the assay on SK-MEL-28 melanoma and in the assay with OVCAR-8 ovarian was above 100 µM each time. Further, the TGI with HOP-62 NSCLC, with PC-3 prostate, in the assay with OVCAR-4 ovarian, in the assay on ACHN renal, in the assay with MDA-N and in the assay on HOP-92 NSCLC was above 100 µM in each case. The TGI with HCT-15 colon, in the assay with HCT-116 colon, with SNB-75 CNS, with U251 CNS, in the assay on SK-MEL-5 melanoma and in the assay with UACC-257 melanoma was above 100 µM each time. The compound also came in with a TGI with SNB-19 CNS above 100 µM.

Regarding `Cc1nnc2sc(-c3ccc(-c4ccccc4Cl)o3)nn12`, the TGI was above 100 µM in the assay on RXF 393 renal; above 100 µM in the assay with HT29 colon; above 100 µM in the assay on M14 melanoma; above 100 µM in the assay with TK-10 renal; above 100 µM with A498 renal; 53.1 µM with OVCAR-8 ovarian. The TGI in the assay with HOP-62 NSCLC is above 100 µM; with PC-3 prostate, above 100 µM; in the assay with OVCAR-4 ovarian it was above 100 µM; in the assay on ACHN renal it was above 100 µM; with MDA-N, 40.6 µM; in the assay on HOP-92 NSCLC, above 100 µM. The TGI is 86 µM with HCT-15 colon; 44.2 µM in the assay with HCT-116 colon; above 100 µM in the assay with U251 CNS; 61.3 µM with SK-MEL-5 melanoma; above 100 µM with UACC-257 melanoma; above 100 µM in the assay on SNB-19 CNS.

Consider `CCCCCCCCCCCC1N=C(N)NC(CCCO)=C1C(=O)OC` (stereo not given), for which the TGI with HT29 colon came to 3.05 µM; in the assay with TK-10 renal it was 12.5 µM; in the assay on SK-MEL-28 melanoma, 12.1 µM; with A498 renal, 41.6 µM; in the assay with OVCAR-8 ovarian, 6.25 µM; in the assay on HOP-62 NSCLC, 8.53 µM. Also, the TGI in the assay on PC-3 prostate was 3.93 µM; in the assay on OVCAR-4 ovarian it was 9.15 µM; in the assay on ACHN renal, 17.3 µM; with MDA-N, above 100 µM; in the assay on HOP-92 NSCLC, 10.7 µM; with HCT-15 colon, 29.7 µM. Further, the TGI came to 3.01 µM with HCT-116 colon, 7.44 µM in the assay on SNB-75 CNS, 6.33 µM in the assay on SK-MEL-5 melanoma and 11.7 µM in the assay on UACC-257 melanoma.

Turning to `CC(C)CNC(=O)Cn1c2c(c3ccccc31)CCCC2`, the TGI in the assay with HT29 colon was above 100 µM; in the assay on M14 melanoma, above 100 µM; in the assay with TK-10 renal it was above 100 µM; in the assay with SK-MEL-28 melanoma, above 100 µM; in the assay on A498 renal, 85 µM; with OVCAR-8 ovarian, above 100 µM. The TGI in the assay on HOP-62 NSCLC, in the assay with PC-3 prostate, with OVCAR-4 ovarian, in the assay with ACHN renal, with MDA-N and in the assay on HOP-92 NSCLC was above 100 µM throughout. Also, the TGI with HCT-15 colon, in the assay on HCT-116 colon, in the assay with SK-MEL-5 melanoma, in the assay on UACC-257 melanoma and in the assay with SNB-19 CNS was above 100 µM in each case.

For the compound `c1ccc2c(c1)CCN2CCc1c[nH]c2ccccc12`, the TGI in the assay on RXF 393 renal, with HT29 colon, with M14 melanoma, in the assay on TK-10 renal, in the assay with SK-MEL-28 melanoma and with OVCAR-8 ovarian was above 10 µM throughout. Further, the TGI in the assay with HOP-62 NSCLC, in the assay on PC-3 prostate, in the assay with OVCAR-4 ovarian, in the assay with ACHN renal, in the assay on MDA-N and with HOP-92 NSCLC was above 10 µM each time. Moreover, the TGI with HCT-15 colon, in the assay on HCT-116 colon, in the assay with SNB-75 CNS, in the assay with U251 CNS, with SK-MEL-5 melanoma and in the assay on UACC-257 melanoma was above 10 µM in each case. In the assay on SNB-19 CNS, the TGI is above 10 µM.
